Assay results reported in ChEMBL document CHEMBL3396982, “Design and synthesis of a novel series of [1-(4-hydroxy-benzyl)-1H-indol-5-yloxy]-acetic acid compounds as potent, selective, thyroid hormone receptor β agonists” (Bioorg Med Chem Lett, 2015).

Assays:
[1] = biological target: T1, Thyroid hormone receptor beta (Homo sapiens, UniProt P10828); experiment: Displacement of [125I]-L-3,5,3'-triiodothyronine from human TRbeta expressed in human Hela cell lysate measured after overnight incubation by competition binding assays; type: cell-free
T1 sequence (P10828 whole entry): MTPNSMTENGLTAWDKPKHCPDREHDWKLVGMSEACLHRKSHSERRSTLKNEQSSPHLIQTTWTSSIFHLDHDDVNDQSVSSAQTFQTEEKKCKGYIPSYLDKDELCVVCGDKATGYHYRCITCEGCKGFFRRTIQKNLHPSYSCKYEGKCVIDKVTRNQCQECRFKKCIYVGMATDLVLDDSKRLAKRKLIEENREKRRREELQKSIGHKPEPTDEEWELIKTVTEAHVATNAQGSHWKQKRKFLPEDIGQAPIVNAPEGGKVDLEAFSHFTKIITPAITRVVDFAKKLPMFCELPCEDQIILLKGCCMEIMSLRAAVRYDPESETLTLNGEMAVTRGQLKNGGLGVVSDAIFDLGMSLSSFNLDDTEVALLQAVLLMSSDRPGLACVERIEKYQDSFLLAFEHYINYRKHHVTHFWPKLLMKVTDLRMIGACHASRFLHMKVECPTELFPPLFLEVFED

[2] = biological target: T2, Thyroid hormone receptor alpha (Homo sapiens, UniProt P10827); experiment: Displacement of [125I]-L-3,5,3'-triiodothyronine from human TRalpha expressed in human Hela cell lysate measured after overnight incubation by competition binding assays; type: cell-free
T2 sequence (P10827 whole entry): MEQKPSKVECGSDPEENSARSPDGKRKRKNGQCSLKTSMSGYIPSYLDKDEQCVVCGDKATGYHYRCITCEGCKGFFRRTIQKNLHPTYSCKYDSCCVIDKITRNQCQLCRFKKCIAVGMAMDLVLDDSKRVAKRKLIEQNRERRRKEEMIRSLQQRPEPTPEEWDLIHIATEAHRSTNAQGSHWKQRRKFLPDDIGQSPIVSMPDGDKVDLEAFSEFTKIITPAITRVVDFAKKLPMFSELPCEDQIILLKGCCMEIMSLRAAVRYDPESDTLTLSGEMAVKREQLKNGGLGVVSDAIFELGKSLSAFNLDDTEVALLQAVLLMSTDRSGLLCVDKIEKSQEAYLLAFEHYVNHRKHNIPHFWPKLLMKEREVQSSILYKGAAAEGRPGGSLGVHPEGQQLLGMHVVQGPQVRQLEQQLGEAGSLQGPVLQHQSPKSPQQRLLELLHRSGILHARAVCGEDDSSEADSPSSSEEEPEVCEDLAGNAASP

Rattus norvegicus [3] = experiment: Increase in HDL level in fructose-fed Sprague-Dawley rat model of dyslipidemia at 0.1 mg/kg, po qd through oral gavage by size exclusion chromatography relative to vehicle-treated control; type: functional
Rattus norvegicus [4] = experiment: Toxicity in fructose-fed Sprague-Dawley rat model of dyslipidemia assessed as effect on food intake at 0.1 to 10 mg/kg, po qd through oral gavage; type: organism-based; parameters: dose 0.1-10 mg/kg, route oral; details: in vivo
Rattus norvegicus [5] = experiment: Increase in HDL level in fructose-fed Sprague-Dawley rat model of dyslipidemia at 0.3 mg/kg, po qd through oral gavage by size exclusion chromatography relative to vehicle-treated control; type: functional
Rattus norvegicus [6] = experiment: Increase in HDL level in fructose-fed Sprague-Dawley rat model of dyslipidemia at 1 mg/kg, po qd through oral gavage by size exclusion chromatography relative to vehicle-treated control; type: functional
Rattus norvegicus [7] = experiment: Increase in HDL level in fructose-fed Sprague-Dawley rat model of dyslipidemia at 3 mg/kg, po qd through oral gavage by size exclusion chromatography relative to vehicle-treated control; type: functional
Rattus norvegicus [8] = experiment: Increase in HDL level in fructose-fed Sprague-Dawley rat model of dyslipidemia at 10 mg/kg, po qd through oral gavage by size exclusion chromatography relative to vehicle-treated control; type: functional
Rattus norvegicus [9] = experiment: Decrease in triglyceride level in fructose-fed Sprague-Dawley rat model of dyslipidemia at 0.1 mg/kg, po qd through oral gavage by size exclusion chromatography (Rvb =296 +/- 20 mg/dL); type: functional
Rattus norvegicus [10] = experiment: Decrease in triglyceride level in fructose-fed Sprague-Dawley rat model of dyslipidemia at 0.3 mg/kg, po qd through oral gavage by size exclusion chromatography (Rvb =296 +/- 20 mg/dL); type: functional
Rattus norvegicus [11] = experiment: Decrease in triglyceride level in fructose-fed Sprague-Dawley rat model of dyslipidemia at 1 mg/kg, po qd through oral gavage by size exclusion chromatography (Rvb =296 +/- 20 mg/dL); type: functional
Rattus norvegicus [12] = experiment: Decrease in triglyceride level in fructose-fed Sprague-Dawley rat model of dyslipidemia at 3 mg/kg, po qd through oral gavage by size exclusion chromatography (Rvb =296 +/- 20 mg/dL); type: functional
Rattus norvegicus [13] = experiment: Decrease in triglyceride level in fructose-fed Sprague-Dawley rat model of dyslipidemia at 10 mg/kg, po qd through oral gavage by size exclusion chromatography (Rvb =296 +/- 20 mg/dL); type: functional
[14] = biological target: T1, Thyroid hormone receptor beta; experiment: Agonist activity at TRbeta (unknown origin) expressed in human HuH7 cells after 24 hrs by Gal4 CTF cell-based assay; parameters: species or system Huh-7
[15] = biological target: T2, Thyroid hormone receptor alpha; experiment: Agonist activity at TRalpha (unknown origin) expressed in human HuH7 cells after 24 hrs by Gal4 CTF cell-based assay; parameters: species or system Huh-7

CC(C)c1cc(Cn2ccc3cc(OCC(=O)O)ccc32)ccc1O
Ki [1]: 1.04 nM | Ki [2]: 13.5 nM

CC(C)c1cc(Cn2ccc3cc(OCC(=O)O)cc(Cl)c32)ccc1O
Ki [1]: 0.07 nM | Ki [2]: 0.35 nM

Cc1cn(Cc2ccc(O)c(-c3ccccc3)c2)c2ccc(OCC(=O)O)cc12
Ki [1]: 3.14 nM | Ki [2]: 89.9 nM

Cc1cc(OCC(=O)O)cc2cc(C)n(Cc3ccc(O)c(C(C)C)c3)c12
Ki [1]: 0.14 nM | Ki [2]: 2.05 nM

Cc1cn(Cc2ccc(O)c(C(C)C)c2)c2c(C)cc(OCC(=O)O)cc12
Ki [1]: 0.18 nM | Ki [2]: 2.77 nM

Cc1cn(Cc2ccc(O)c(C3CCCC3)c2)c2ccc(OCC(=O)O)cc12
Ki [1]: 0.64 nM | Ki [2]: 32.3 nM

Cc1cn(Cc2ccc(O)c(C(C)C)c2)c2c(Cl)cc(OCC(=O)O)cc12
Ki [1]: 0.09 nM | Ki [2]: 0.51 nM

Cc1cn(Cc2ccc(O)c(C(C)(C)C)c2)c2ccc(OCC(=O)O)cc12
Ki [1]: 0.3 nM | Ki [2]: 9.98 nM

Cc1cn(Cc2ccc(O)c(C(C)C)c2)c2ccc(OCC(=O)O)cc12
Ki [1]: 0.38 nM | Ki [2]: 7.74 nM | Activity (Rattus norvegicus [3]): 22% | Activity (Rattus norvegicus [4]): Non-toxic | Activity (Rattus norvegicus [5]): 39% | Activity (Rattus norvegicus [6]): 55% | Activity (Rattus norvegicus [7]): 42% | Activity (Rattus norvegicus [8]): 35% | Activity (Rattus norvegicus [9]): 204 mg/dL | Activity (Rattus norvegicus [10]): 214 mg/dL | Activity (Rattus norvegicus [11]): 177 mg/dL | Activity (Rattus norvegicus [12]): 149 mg/dL | Activity (Rattus norvegicus [13]): 106 mg/dL

Cc1cc(OCC(=O)O)cc2ccn(Cc3ccc(O)c(C(C)C)c3)c12
Ki [1]: 0.26 nM | Ki [2]: 1.09 nM

Cc1cn(Cc2ccc(O)c(CC3CCCCC3)c2)c2ccc(OCC(=O)O)cc12
Ki [1]: 1.11 nM | Ki [2]: 46.6 nM

Cc1cn(Cc2ccc(O)c(Cc3ccccc3)c2)c2ccc(OCC(=O)O)cc12
Ki [1]: 0.54 nM | Ki [2]: 36.5 nM | EC50 [14]: 406 nM | EC50 [15]: 2470 nM

Cc1cn(Cc2ccc(O)c(C3CCCCC3)c2)c2ccc(OCC(=O)O)cc12
Ki [1]: 8.04 nM | Ki [2]: 200 nM

Cc1cc2cc(OCC(=O)O)ccc2n1Cc1ccc(O)c(C(C)C)c1
Ki [1]: 1.12 nM | Ki [2]: 16.3 nM

Cc1cc2cc(OCC(=O)O)cc(Cl)c2n1Cc1ccc(O)c(C(C)C)c1
Ki [1]: 0.04 nM | Ki [2]: 0.38 nM
